In the OligoGym collection:
After the bases stand the sugars from the 5' end (letter, count) and the backbone: PS all phosphorothioate, else s phosphorothioate and o phosphodiester by linkage. Methylation of C is not given here. e = 2'-O-(2-methoxyethyl) (MOE); k = constrained ethyl (cEt); d = 2'-deoxy (DNA); m = 2'-O-methyl

Molecular target: HSD17B13
Conditions: ASO, HepaRG

Sequence	target mRNA inhibition (1 µM) [%]	further results
AAAAACTTCACCAACG (sugars k3 d10 k3, PS)	8	–
AAAAAGCTCTATTGGT (sugars k3 d10 k3, PS)	0	–
AAAAATCGCTGCTTAG (sugars k3 d10 k3, PS)	25	–
AAAAGGCCCAAGGCTT (sugars k3 d10 k3, PS)	30	–
AAAAGTGTCCTCGATC (sugars k3 d10 k3, PS)	17	–
AAAATATGTCCAGGTT (sugars k3 d10 k3, PS)	74	–
AAAAUAGAGTCGGTCA (sugars k3 d1 m1 d8 k3, PS)	62	–
AAAGACTTTGAGACTC (sugars k3 d1 m1 d8 k3, PS)	76	target mRNA inhibition (0.02 µM): 14%; target mRNA inhibition (0.078 µM): 28%; target mRNA inhibition (0.313 µM): 42%; target mRNA inhibition (1.25 µM): 66%; target mRNA inhibition (5 µM): 77%
AAAGGTGGGATAAACT (sugars k3 d10 k3, PS)	33	–
AAATAGAGTCGGTCAC (sugars k3 d9 k3 e1, PS)	48	–
AAATAGAGTCGGTCAC (sugars kkdddddddddkekek, PS)	50	–
AAATATGTCCAGGTTG (sugars kkdddddddddkekek, PS)	61	–
AAATCATGGTGTGGAG (sugars k3 d10 k3, PS)	1	–
AAATTATACTTTTCCG (sugars k3 d10 k3, PS)	85	target mRNA inhibition (0.02 µM): 0%; target mRNA inhibition (0.078 µM): 38%; target mRNA inhibition (0.313 µM): 66%; target mRNA inhibition (1.25 µM): 88%; target mRNA inhibition (5 µM): 92%
AAATTGATACACCAAT (sugars k3 d10 k3, PS)	14	–
AAATTGTCTAAACATC (sugars k3 d10 k3, PS)	24	–
AAATTTCAGTACCCAG (sugars k3 d10 k3, PS)	46	–
AACAACCCAGCCTCGG (sugars k3 d10 k3, PS)	20	–
AACAATATGGGATGAG (sugars k3 d10 k3, PS)	39	–
AACAGTCTTAAACCTT (sugars k3 d9 k3 e1, PS)	57	–
AACCAATATGCTCTGT (sugars k3 d10 k3, PS)	51	–
AACCCAGTATTCACAA (sugars k3 d10 k3, PS)	0	–
AACTAAACATGACAGC (sugars k3 d10 k3, PS)	72	target mRNA inhibition (0.02 µM): 8%; target mRNA inhibition (0.078 µM): 26%; target mRNA inhibition (0.313 µM): 40%; target mRNA inhibition (1.25 µM): 65%; target mRNA inhibition (5 µM): 85%
AACTAACCTGACACAT (sugars k3 d10 k3, PS)	20	–
AACTACTTCAGTTAGC (sugars k3 d10 k3, PS)	53	–

Sequence	target mRNA inhibition (1 µM) [%]	further results
AACTGAAACGATCCTC (sugars k3 d10 k3, PS)	52	–
AACTTCATAGTGGACT (sugars k3 d9 k3 e1, PS)	70	–
AACTTCATAGTGGACT (sugars k3 d10 k3, PS)	68	–
AACTTTTAGTCAGGTA (sugars k3 d10 k3, PS)	49	–
AACTUCATAGTGGACT (sugars k3 d1 m1 d8 k3, PS)	38	–
AAGACATTCTAGCCTG (sugars k3 d1 m1 d8 k3, PS)	54	–
AAGACATTCTAGCCTG (sugars kkdddddddddkekek, PS)	25	–
AAGAGGCTAGGGAAAT (sugars k3 d10 k3, PS)	66	–
AAGAGTCAGTATCCTC (sugars k3 d10 k3, PS)	63	–
AAGATAAGTAGATGGT (sugars k3 d10 k3, PS)	79	target mRNA inhibition (0.02 µM): 7%; target mRNA inhibition (0.078 µM): 26%; target mRNA inhibition (0.313 µM): 58%; target mRNA inhibition (1.25 µM): 77%; target mRNA inhibition (5 µM): 89%
AAGATATTGATATACG (sugars k3 d10 k3, PS)	45	–
AAGAUACCCAGGTTGC (sugars k3 d1 m1 d8 k3, PS)	37	–
AAGCAGAATTGTGAAC (sugars k3 d10 k3, PS)	18	–
AAGGAGCTAGATACTC (sugars k3 d10 k3, PS)	19	–
AAGTAAGGTAAAGTCT (sugars k3 d10 k3, PS)	20	–
AAGTAGGAGTAGATGA (sugars k3 d10 k3, PS)	0	–
AAGTCCAGAATAGAGT (sugars k3 d10 k3, PS)	60	–
AAGTGCTTTTGTGATC (sugars k3 d10 k3, PS)	41	–
AAGTTAGCCCCCAGGA (sugars k3 d10 k3, PS)	36	–
AAGTUAGCCCCCAGGA (sugars k3 d1 m1 d8 k3, PS)	0	–
AATACATTAGCAAGCT (sugars k3 d10 k3, PS)	45	–
AATACCCTTGGTGGAG (sugars k3 d10 k3, PS)	16	–
AATAGAGTCGGTCACC (sugars k3 d10 k3, PS)	58	–
AATAGCCAGTACAGTT (sugars k3 d10 k3, PS)	46	–
AATAGCCAGTACAGTT (sugars kkdddddddddkekek, PS)	36	–

Sequence	target mRNA inhibition (1 µM) [%]	further results
AATAGGAGAGTCTTTC (sugars k3 d10 k3, PS)	47	–
AATATAGAGGGTCCAC (sugars k3 d10 k3, PS)	7	–
AATATATACCTGTTGC (sugars k3 d10 k3, PS)	38	–
AATATGGGATGAGGTA (sugars kkdddddddddkekek, PS)	52	–
AATAUGGGATGAGGTA (sugars k3 d1 m1 d8 k3, PS)	38	–
AATAUTGAGGCACTGG (sugars k3 d1 m1 d8 k3, PS)	48	–
AATCACAAGTAAGGTA (sugars k3 d1 m1 d8 k3, PS)	31	–
AATCACAAGTAAGGTA (sugars k3 d9 k3 e1, PS)	63	–
AATCACAAGTAAGGTA (sugars k3 d10 k3, PS)	52	–
AATCATGGTGTGGAGG (sugars k3 d10 k3, PS)	11	–
AATCCCAACCAAACTT (sugars k3 d9 k3 e1, PS)	13	–
AATTAACATTCGGCTA (sugars k3 d10 k3, PS)	38	–
AATTATACTTTTCCGT (sugars k3 d10 k3, PS)	66	–
AATTATGCCTTGTGGC (sugars k3 d10 k3, PS)	19	–
AATTCACTATCTCCCT (sugars k3 d10 k3, PS)	10	–
AATTCTAAACTAGTGG (sugars k3 d10 k3, PS)	31	–
AATTTTCGGGTTCTTA (sugars k3 d10 k3, PS)	35	–
ACAAAATCATGGTGTG (sugars k3 d10 k3, PS)	26	–
ACAAGAGTTCTTGCAG (sugars k3 d10 k3, PS)	29	–
ACAAGTGACAGCATTG (sugars k3 d10 k3, PS)	44	–
ACAATATGGGATGAGG (sugars kkdddddddddkekek, PS)	51	–
ACAATTAACATTCGGC (sugars k3 d10 k3, PS)	77	target mRNA inhibition (0.02 µM): 13%; target mRNA inhibition (0.078 µM): 15%; target mRNA inhibition (0.313 µM): 43%; target mRNA inhibition (1.25 µM): 62%; target mRNA inhibition (5 µM): 79%
ACAATTTTTCCAATCC (sugars k3 d10 k3, PS)	86	target mRNA inhibition (0.02 µM): 9%; target mRNA inhibition (0.078 µM): 37%; target mRNA inhibition (0.313 µM): 62%; target mRNA inhibition (1.25 µM): 76%; target mRNA inhibition (5 µM): 93%
ACACCGCGCTTATTAA (sugars k3 d10 k3, PS)	7	–
ACACTAATATTGAGGC (sugars kkdddddddddkekek, PS)	55	–

Sequence	target mRNA inhibition (1 µM) [%]	further results
ACAGATTGGAATGCTA (sugars kkdddddddddkekek, PS)	49	–
ACAGTAAAATTATGCC (sugars k3 d10 k3, PS)	73	target mRNA inhibition (0.02 µM): 0%; target mRNA inhibition (0.078 µM): 0%; target mRNA inhibition (0.313 µM): 4%; target mRNA inhibition (1.25 µM): 50%; target mRNA inhibition (5 µM): 68%
ACATCTCTGGGACCAA (sugars k3 d1 m1 d8 k3, PS)	68	–
ACATCTCTGGGACCAA (sugars k3 d9 k3 e1, PS)	65	–
ACATCTCTGGGACCAA (sugars k3 d10 k3, PS)	78	–
ACATTAGCAAGCTAAG (sugars k3 d9 k3 e1, PS)	41	–
ACATTAGCAAGCTAAG (sugars kkdddddddddkekek, PS)	23	–
ACCAAACTTCCAGCAG (sugars k3 d10 k3, PS)	31	–
ACCAAGAGACACCACC (sugars k3 d10 k3, PS)	41	–
ACCAAGGCCATGACAT (sugars k3 d10 k3, PS)	17	–
ACCAAGTAGCTTACAT (sugars k3 d10 k3, PS)	2	–
ACCAATCCTCAGCTTT (sugars k3 d10 k3, PS)	11	–
ACCCATTCTAACTTGA (sugars k3 d10 k3, PS)	0	–
ACCCGCCCTTAAGTCA (sugars k3 d10 k3, PS)	48	–
ACCGTTTTGGGCTAAT (sugars k3 d9 k3 e1, PS)	73	–
ACCTTGAATGAGTGGT (sugars k3 d10 k3, PS)	26	–
ACTAATATTGAGGCAC (sugars k3 d10 k3, PS)	19	–
ACTAATATTGAGGCAC (sugars kkdddddddddkekek, PS)	27	–
ACTACAAGAGGTTATT (sugars k3 d9 k3 e1, PS)	58	–
ACTAGGAAGTGATCCA (sugars k3 d10 k3, PS)	58	–
ACTCCCCAAACATGGA (sugars k3 d10 k3, PS)	48	–
ACTGAAGGTCTGAGCT (sugars k3 d10 k3, PS)	20	–
ACTGAGTAAACGACTC (sugars k3 d10 k3, PS)	45	–
